Where “and” joins values, the source holds several entries; their conditions need not be identical. Equal values may be shown once.
What was measured:
Format in all cases: toxicity, cell-based
[1] = tested on: HEK-293T; experiment: Incucyte cell viability with HEK293T; details: human, 10 µM, compound concentration 10 uM
[2] = tested on: Fibroblast; experiment: Incucyte cell viability with human fibroblast; details: 10 µM, compound concentration 10 uM
[3] = tested on: U2OS; experiment: Incucyte cell viability with U2OS; details: human, 10 µM, compound concentration 10 uM
Also: unitless GR value; below 1 slowed growth and below 0 cell loss.

SMILES | Growth Rate ([1]; 6 h, replicate number 1) | Growth Rate ([1]; 6 h, replicate number 2) | Growth Rate ([1]; 12 h, replicate number 1) | Growth Rate ([1]; 12 h, replicate number 2) | Growth Rate ([1]; 18 h, replicate number 1) | Growth Rate ([1]; 18 h, replicate number 2) | Growth Rate ([1]; 24 h, replicate number 1) | Growth Rate ([1]; 24 h, replicate number 2) | Growth Rate ([2]; 0 h, replicate number 2) | Growth Rate ([2]; 6 h, replicate number 1) | Growth Rate ([2]; 12 h, replicate number 2) | Growth Rate ([2]; 18 h, replicate number 1) | Growth Rate ([3]; 12 h, replicate number 1) | Growth Rate ([3]; 18 h, replicate number 1) | Growth Rate ([1]; 0 h, replicate number 1) | Growth Rate ([3]; 6 h, replicate number 1) | Growth Rate ([3]; 6 h, replicate number 2) | Growth Rate ([3]; 24 h, replicate number 2) | Growth Rate ([3]; 12 h, replicate number 2) | Growth Rate ([3]; 24 h, replicate number 1) | also measured
CC[C@]1(C)C[C@@H](OC(=O)CSc2nnc(N)[nH]2)[C@@]2(C)[C@H](C)CC[C@@]3(CCC(=O)[C@H]32)[C@@H](C)[C@@H]1O | 0.09 | 0.46 | 0.86 | 0.81 | 0.65 | 0.83 | 0.84 | 0.87 | -0.62 | -0.17 | 0.82 | 0.7 | 0.98 | 0.95 | – | – | – | – | – | – | Growth Rate ([2]; 6 h, replicate number 2): -0.93; Growth Rate ([2]; 18 h, replicate number 2): 0.99; Growth Rate ([2]; 24 h, replicate number 2): 0.97
Cc1cc2c(-c3ccco3)cnc(N[C@@H]3CCN(C)C[C@H]3C(=O)NC3CCCCC3)c2[nH]c1=O [GSK789] | – | – | – | – | – | – | – | – | – | 0.33 | – | – | 1 | – | 0.12 | 0.92 | 0.89 | 1 | – | – | Growth Rate ([2]; 6 h, replicate number 2): 0; Growth Rate ([3]; 0 h, replicate number 1): -0.1
CS(=O)(=O)c1cc(C2(NC(=O)c3cncc4c3cnn4-c3ccc(F)cc3)CC2)ccn1 [BI 639667] | 0.52 | – | 0.77 | – | 0.9 | – | 1 | – | -0.75 | – | 0.97 | – | – | – | – | 0.64 | – | – | 0.76 | – | Growth Rate ([1]; 0 h, replicate number 2): -0.17
FC(F)(F)c1ccccc1-c1cc(C(F)(F)F)c2[nH]c(C3=NOC4(CCCCC4)C3)nc2c1 | 0.12 | -0.15 | -0.3 | -0.05 | -0.22 | -0.02 | -0.23 | 0 | – | – | -0.41 | – | – | – | – | – | – | 0.94 | 0.98 | – | Growth Rate ([2]; 6 h, replicate number 2): -0.79; Growth Rate ([2]; 18 h, replicate number 2): -0.08; Growth Rate ([2]; 24 h, replicate number 2): -0.03; Growth Rate ([3]; 0 h, replicate number 2): -0.12
CCc1cncnc1N1CCN(Cc2nc3cc(C(F)(F)F)ccc3[nH]2)CC1 | 0.41 | 0.28 | 0.53 | 0.34 | 0.65 | 0.48 | 0.88 | 0.58 | – | 1 | 0.78 | 0.44 | 0.51 | 0.53 | – | 0.31 | 0.19 | 0.84 | 0.49 | 0.7 | Growth Rate ([2]; 0 h, replicate number 1): 0.88; Growth Rate ([2]; 6 h, replicate number 2): -0.99; Growth Rate ([2]; 12 h, replicate number 1): -1; Growth Rate ([2]; 24 h, replicate number 1): 0.31; Growth Rate ([2]; 24 h, replicate number 2): 0.93; Growth Rate ([3]; 0 h, replicate number 2): -0.83; Growth Rate ([3]; 18 h, replicate number 2): 0.57
Cc1nn(-c2ccccc2)c(Nc2ccccc2C(=O)O)c1-c1cc2nccnc2c(F)c1F | – | – | – | – | – | – | – | – | -0.36 | 0.39 | – | – | 1 | – | 0.45 | 0.75 | – | – | – | – | Growth Rate ([1]; 0 h, replicate number 2): -0.55; Growth Rate ([2]; 6 h, replicate number 2): -0.17; Growth Rate ([2]; 18 h, replicate number 2): 0.57; Growth Rate ([2]; 24 h, replicate number 2): 0.79
CN(Cc1cccc(F)c1CNc1cc(F)c(S(=O)(=O)Nc2cscn2)c(F)c1)C(C)(C)C | – | – | – | – | – | – | – | – | -0.81 | – | – | 0.65 | 0.72 | 0.89 | 0.6 | 0.37 | 0.58 | 0.96 | 0.86 | 0.9 | Growth Rate ([1]; 0 h, replicate number 2): 0.65; Growth Rate ([3]; 18 h, replicate number 2): 0.97
CCCCc1c(-c2ccccc2)nc(N)nc1-c1ccc(OCc2ccccc2)c(F)c1F | – | – | – | 0.89 | – | – | – | 0.99 | 0.8 | – | – | – | – | – | -0.23 | 0.5 | 0.27 | 0.77 | 0.36 | 1 | Growth Rate ([1]; 0 h, replicate number 2): -0.46; Growth Rate ([3]; 0 h, replicate number 2): -0.86; Growth Rate ([3]; 18 h, replicate number 2): 0.55
COc1cc(-c2cc3ncccc3c(O[C@H](C)[C@H]3CNC(=O)C3)n2)cc(OC)c1OC.Cl | – | – | – | – | – | 0.97 | – | 0.86 | -0.01 | 0.62 | 0.61 and 0.94 | 0.88 | 0.79 | 0.92 | – | – | – | 0.94 | – | 0.78 | Growth Rate ([2]; 0 h, replicate number 1): -1; Growth Rate ([2]; 12 h, replicate number 1): 0.89; Growth Rate ([2]; 18 h, replicate number 2): 0.86
CC(C)Nc1ncnc2cc(OCc3cccc([S@@](C)(=N)=O)c3)c(Br)cc12 | 0.65 | 0.3 | 0.67 | 0.73 | 0.82 | 0.81 | 0.82 | 0.87 | – | – | – | – | – | – | – | – | – | – | – | 0.93 | Growth Rate ([2]; 0 h, replicate number 1): -0.74
Cc1csc(-c2nnc(Nc3ccc(Oc4ncccc4-c4ccnc(N)n4)cc3)c3ccccc23)c1 [AMG-900] | – | – | – | – | – | – | – | – | -0.73 | – | 0.98 | – | 0.57 | 0.27 | -0.13 | 0.79 | 0.9 | 0.41 | 0.16 | 0.33 | Growth Rate ([1]; 0 h, replicate number 2): -0.21; Growth Rate ([2]; 24 h, replicate number 1): 0.75; Growth Rate ([3]; 18 h, replicate number 2): 0.17
O=C(O)c1ccc(S(=O)(=O)N(Cc2ccc(OC(F)(F)F)cc2)c2ncc(C(F)(F)F)cc2Cl)cc1 | – | 0.33 | – | 0.79 | – | 0.81 | – | 0.93 | -0.5 | 0.15 | – | 0.16 | – | – | 0.66 | – | 0.99 | 0.85 | 0.75 | – | Growth Rate ([2]; 0 h, replicate number 1): 0.4; Growth Rate ([2]; 24 h, replicate number 1): 0.93; Growth Rate ([3]; 18 h, replicate number 2): 0.93
Cc1cc(-c2ccnc(Nc3cnn(C)c3)n2)ccc1CNC(=O)N1CC(OC(C)C)C1 | 0.37 | – | 0.72 | – | 0.79 | – | 0.98 | – | -0.87 | 0.47 | – | 0.97 | 0.8 | 0.98 | – | 0.99 | 0.93 | – | – | 0.89 | Growth Rate ([2]; 24 h, replicate number 1): 0.75

Reference: ChEMBL document CHEMBL5303304, “EUbOPEN Chemogenomics Library - IncuCyte” (2023)
